Experiments:
[1] = tested on: spontaneous hypertensive rats (SHR); experiment: Oral study in SHR on 2.2% salt diet: kidney interstitial fibrosis, histomorphometry on Masson's trichrome stained sections; format: in vivo, rat; conditions: for Fibrosis in the kidney: 18 week old SHR on 2.2% salt diet, 4 weeks treatment, 500 pmol/kg/min orally, compared to controls (FIG. 17); for Histological sections from the kidneys (micrographs): rats on 2.2% salt diet treated four weeks with 500 pmol/kg/min, control has extensive fibrosis (FIG. 21)
Text: (§1) Fourteen week old SHR (on a 2.2% salt diet; Glen Forrest Stockfeeders) were randomly assigned to zero time control, test compound treatment (100 or 500 pmol/kg/min) in the drinking solution or control drinking solution (5% ethanol in deionised distilled water (n=5 each group). The rats assigned to zero time control group were anaesthetised and had their heart and kidneys harvested while rats assigned to control and test compound treatment were weighed twice weekly and had their drinking solution intake monitored to allow adjustment of the test compound concentration in the drinking solution to maintain a constant dose over the 4-week study period. Blood pressure was measured twice weekly by tail cuff plethysmography (PowerLab, ADInstruments, Castle Hill, NSW, Australia).
(§2) After 4 weeks rats were anaesthetised, and their hearts and kidneys harvested for quantitation of fibrosis.
(§3) To quantitate tissue fibrosis tissue slices ≦3 mm thick were fixed in 10% buffered formalin for 24 hours, processed and embedded in paraffin. Three micron transverse sections were stained using Masson's trichrome stain. A minimum of […] random fields at magnification ×20 from transverse sections (5 at each of 2 levels) were digitized and the degree of fibrosis determined as a percent of field area of each digitized image using Image-Pro Plus V.7 (Media Cybernetics, Bethesda, Md., USA) then averaged to determine the level of fibrosis for tissue for each rat.

[2] = tested on: spontaneous hypertensive rats (SHR); experiment: Oral study in SHR on 2.2% salt diet: blood pressure by tail cuff plethysmography; format: in vivo, rat; conditions: 4 weeks treatment, 100 or 500 pmol/kg/min orally in drinking solution, compared to controls (FIG. 13)
Text: as §1

[3] = tested on: spontaneous hypertensive rats (SHR); experiment: Oral study in SHR on 2.2% salt diet: myocardial fibrosis, histomorphometry on Masson's trichrome stained sections; format: in vivo, rat; conditions: for Fibrosis in the heart: 18 week old SHR on 2.2% salt diet, 4 weeks treatment, 500 pmol/kg/min orally, compared to controls (FIG. 16); for Histological sections from the hearts (micrographs): rats on 2.2% salt diet treated four weeks with 500 pmol/kg/min, control has extensive fibrosis (FIG. 20)
Text: as §1, §2, §3

Row | SMILES | melting point [°C] | Fibrosis in the kidney [1] | Histological sections from the kidneys (micrographs) [1] | Mean diastolic blood pressure [2] | Mean systolic blood pressure [2] | Fibrosis in the heart [3] | Histological sections from the hearts (micrographs) [3]
1 | NC(=O)CCc1cc(-c2ccccc2)ccc1-c1ccc2c(c1)NC(=O)C2 [T25, 3-(4-(2-Oxoindolin-6-yl)-[1,1′-biphenyl]-3-yl)propanamide] | 219 to 222 | – | – | – | – | – | –
2 | CS(=O)(=O)Nc1cccc(-c2ccc(-c3ccccc3)cc2CCC(N)=O)c1 [T1, 3-(3-(Methylsulfonamido)-[1,1′:4′,1″-terphenyl]-2′-yl)propanamide] | – | decreased compared to controls | fibrosis has been reduced to thin bands incompletely surrounding some but not all tubules | decreased compared to controls | decreased blood pressure compared to controls | decreased compared to controls | no discrete areas of fibrosis are present
3 | NC(=O)CCc1cc(-c2ccccc2)ccc1-c1ccc2[nH]c(=O)[nH]c2c1 [T31, 3-(4-(2-Oxo-2,3-dihydro-1H-benzo[d]imidazol-5-yl)-[1,1′-biphenyl]-3-yl)propanamide] | 250 to 251 | decreased compared to controls | fibrosis has been reduced to thin bands incompletely surrounding some but not all tubules | decreased compared to controls | decreased blood pressure compared to controls | decreased compared to controls | no discrete areas of fibrosis are present
4 | NC(=O)CCc1cc(-c2ccccc2)ccc1-c1cccc(NC=O)c1 [T2, 3-(3-Formamido-[1,1′:4′,1″-terphenyl]-2′-yl)propanamide] | – | decreased compared to controls | fibrosis has been reduced to thin bands incompletely surrounding some but not all tubules | decreased compared to controls | decreased blood pressure compared to controls | decreased compared to controls | no discrete areas of fibrosis are present
5 | CS(=O)(=O)Nc1cc(NS(C)(=O)=O)cc(-c2ccc(-c3ccccc3)cc2CCC(N)=O)c1 [T70, 3-(3,5-Di(methylsulfonamido)-[1,1′:4′,1″-terphenyl]-2′-yl)propanamide] | – | decreased compared to controls | – | decreased compared to controls | decreased blood pressure compared to controls | decreased compared to controls | –
6 | NC(=O)CCc1cc(-c2ccccc2)ccc1-c1cc(O)cc(O)c1 [T20, 3-(3,5-Dihydroxy-[1,1′:4′,1″-terphenyl]-2′-yl)propanamide] | 232 to 233 | decreased compared to controls | fibrosis has been reduced to thin bands incompletely surrounding some but not all tubules | – | decreased blood pressure compared to controls | decreased compared to controls | no discrete areas of fibrosis are present
7 | NC(=O)CCc1cc(-c2ccccc2)ccc1-c1ccnc(N)c1 [T48, 3-(4-(2-Aminopyridin-4-yl)-[1, 1′-biphenyl]-3-yl)propanamide] | 248 to 249 | decreased compared to controls | – | – | decreased blood pressure compared to controls | decreased compared to controls | –
